Assay results: patent publication US20220249637A1, “COMBINATION THERAPY OF A CELL-MEDIATED CYTOTOXIC THERAPY AND AN INHIBITOR OF A PROSURVIVAL BCL2 FAMILY PROTEIN” (Juno Therapeutics, Inc., priority 2019, published 2022)

Experiments:
anti-CD19 CAR T cells [1] = experiment: CAR T cell viability, ATP luciferin reporter assay after 96 hours anti-idiotypic antibody stimulation; format: cell-based, human
Procedure: Anti-CD19 CAR-expressing T cell compositions were generated from three human adult donors, substantially as described in Example 1. Anti-CD19 CAR T cells were stimulated for 96 hours with an anti-idiotypic antibody in the presence of an exemplary BCL2 inhibitor venetoclax solubilized in dimethylsulfoxide (DMSO). Control anti-CD19 CAR T cells were stimulated for 96 hours with the anti-idiopathic antibody in the presence of an equal amount of DMSO. Specifically, anti-CD19 CAR-expressing cells were added to the wells of a 96-well plate that had been pre-coated with an anti-idiotypic antibody specific to the scFv of the anti-CD19 CAR-expressing T cells described in Example 1 at a concentration of 30 μg/ml. The cells were cultured in the presence of 5% human serum at 37° C. and 5% CO2. After 96 hours, cells were lysed and ATP from viable cells was detected via a luciferin reporter assay and reported as relative luminescence units. Venetoclax-treated CAR T cell counts were assessed and normalized to DMSO control CAR T cell counts.

[2] = tested on: JeKo-1 mantle cell lymphoma cells; experiment: JeKo-1 murine model of mantle cell lymphoma; format: in vivo, NOD scid gamma (NSG) mice
Procedure: NOD scid gamma (NSG) mice were injected intravenously with 2×10^6 JeKo-1 mantle cell lymphoma cells (Day −7) and treated daily with 12.5, 25, 50, or 100 mg/kg of the exemplary BCL2 inhibitor venetoclax for 21 days (Day 0 through Day 21). Tumor burden (FIG. 11A) and body weight (FIG. 11B) were assessed over the course of treatment.
To determine the effects of venetoclax on anti-CD19 CAR T cells in a venetoclax-resistant murine model of MCL, NSG mice were injected intravenously with 2×10^6 JeKo-1 cells on Day −7, and then treated with intravenous infusions of 1×10^6 anti-CD19 CAR T cells, generated substantially as described in previous Example, on Day −1 and Day 0. Venetoclax was administered daily for 21 days (Day 0 to Day 21) at 6.25, 25, or 100 mg/kg. As a control, a subset of mice were only treated with venetoclax. Tumor burden (FIG. 12A), survival (FIGS. 12B and 12C), and CAR T cell number (FIG. 13) were assessed.

RL spheroids = RL spheroids co-cultured with chronically stimulated anti-CD19 CAR T cells; format: cell-based; conditions: 8 days
Procedure: Anti-CD19 CAR-expressing T cells, generated from healthy donors as described above, were chronically stimulated under conditions to exhaust T cell activity by incubation for 8 days with beads coated in anti-idiotypic (anti-ID) antibody directed against the CAR. After the 8 days of chronic stimulation, the anti-CD19 CAR-expressing T cells were harvested and subsequently co-cultured with RL cells engineered to express NLR for 8 days at an E:T ratio of 1:1. As a control, RL cells were cultured in the absence of anti-CD19 CAR T cells. Subtherapeutic concentrations of the exemplary BCL2 inhibitor venetoclax (0.01 μM or 0.1 μM) were added to the cultures, and the number of cells was assessed over time (FIG. 6A).
In another experiment, spheroids were generated from CD19-expressing RL cells as previously described, and co-cultured for 8 days with anti-CD19 CAR T cells at an E:T ratio of 1:1 and increasing concentrations of venetoclax (0.01 μM, 0.1 μM, or 1.0 μM), or with only corresponding concentrations of venetoclax. As before, the anti-CD19 CAR T cells were chronically stimulated with anti-ID antibody-coated beads prior to co-culture with the RL spheroids. […] Overall, the size of the RL spheroids cultured with both anti-CD19 CAR T cells and venetoclax decreased more, and with lower concentrations of venetoclax, compared to that of RL spheroids cultured with just venetoclax.

SUDHL6 = experiment: NucLight Red target cell killing by live cell imaging; format: cell-based; conditions: venetoclax alone, 200 nM
Procedure: (§1) The cytolytic activity of anti-CD19 CAR T cells against two additional CD19-expressing lymphoma target cells lines, SUDHL6 and WSU-DLCL2, was assessed and compared to cytolytic activity against K562.CD19 target cells. Target cells were engineered with a lentiviral reagent to express NucLight Red (NLR) to permit tracking of target cells by microscopy. Anti-CD19 CAR-expressing T cell compositions were generated from two human adult donors, substantially as described above. Target cells were co-cultured with the donor-derived CAR T cell compositions for up to 120 hours at an E:T ratio of 2.5:1. Red target cell counts were tracked over time by live cell imaging and counts were normalized to the number of red target cells at baseline to determine the fold-change in target cells over time.
(§2) Anti-CD19 CAR-expressing T cell compositions were generated as described in Example 1 and were cultured with a CD19-expressing lymphoma target cell lines, either SUDHL6, WSU-DLCL2, or Granta-519 at an E:T ratio of 2.5:1. The co-cultures were carried out in the presence of 20 nM or 200 nM of the exemplary BCL2 inhibitor, venetoclax. As controls, target tumor cell lines were incubated only in the presence of the inhibitor or the anti-CD19 CAR T cells. Target cells were labeled with NucLight Red (NLR) to permit tracking of target cells by microscopy and target cell killing was monitored by the loss of fluorescent signal over time, substantially as described in Example 1.

WSU-DLCL2 = experiment: as above; format: cell-based
Procedure: as §1, §2

anti-CD19 CAR T cells [3] = experiment: Effect of serum concentration on venetoclax IC50 against CAR T cells; format: cell-based; conditions: 5%, 10% or 20% serum
Procedure: Thus, to determine whether serum concentration may modulate the effects of venetoclax on CAR T cells, anti-CD19 CAR T cells were cultured in the presence of 5%, 10%, or 20% serum and treated with increasing concentrations of venetoclax.

anti-CD19 CAR T cells [4] = experiment: Caspase 3 expression and expansion of CAR T cells incubated with anti-ID beads and venetoclax; format: cell-based; conditions: 0.01, 0.1, 1 or 10 μM, 48 hours post-stimulation
Procedure: Anti-CD19 CAR-expressing T cell compositions from healthy donors were incubated with anti-ID antibody-coated beads at 37° C. in the presence of increasing concentrations of venetoclax (0.01 μM, 0.1 μM, 1 μM, or 10 μM) for 48 hours. As a control, CART cells were incubated under the same conditions, but without venetoclax. Caspase 3 expression, viability, and expansion kinetics of the CAR T cells were subsequently assessed.

In the case of CC1(C)CCC(CN2CCN(c3ccc(C(=O)NS(=O)(=O)c4ccc(NCC5CCOCC5)c([N+](=O)[O-])c4)c(Oc4cnc5[nH]ccc5c4)c3)CC2)=C(c2ccc(Cl)cc2)C1 [venetoclax], the IC50 (anti-CD19 CAR T cells [1]; T-cell, average among three donors, 5% human serum) is reported as 7.9 µM, the “percentage of viable anti-CD19 CAR-expressing T cells” value (anti-CD19 CAR T cells [1]; increasing doses) is reported as “decreased with increasing doses of venetoclax” and the tumor volume ([2]; venetoclax 6.25, 25 or 100 mg/kg daily in combination with CAR T cells, vs untreated and venetoclax-only mice) is reported as “reduced tumor volume at all measured time points”. For the same compound, the tumor burden ([2]; venetoclax alone, 6.25, 25 or 100 mg/kg daily for 21 days) was “increased similarly in untreated mice and mice treated with venetoclax alone”, the “tumor burden (bioluminescence imaging)” value ([2]; venetoclax alone, 12.5, 25, 50 or 100 mg/kg daily for 21 days) was “resistant to treatment with venetoclax alone, regardless of dose level” and the tumor size (RL spheroids; venetoclax 0.01, 0.1 or 1.0 μM in the absence of CAR T cells) was “decreases in tumor size were only observed with 1 μM venetoclax”. The tumor size (RL spheroids; with chronically stimulated CAR T cells E:T 1:1, venetoclax 0.01, 0.1 or 1.0 μM) was “greater decreases in tumor size were seen with increasing concentrations of venetoclax”, the tumor cell killing (SUDHL6) was “killing of the sensitive tumor cell line SUDHL6 was achieved” and the “CD19-directed CAR T cell killing” value (WSU-DLCL2; co-culture with anti-CD19 CAR T cells E:T 2.5:1, 20 or 200 nM venetoclax) was “enhanced”. The tumor cell killing (WSU-DLCL2; venetoclax alone, 20 nM or 200 nM) was “did not substantially impact tumor cell killing”, the “IC50 against anti-CD19 CAR T cells” value (anti-CD19 CAR T cells [3]) was “increase with increasing concentrations of serum” and the “percentage of CAR+ T cells expressing caspase 3” value (anti-CD19 CAR T cells [4]) was “larger percentages of CAR+ T cells expressing caspase 3”.
